The text below walks through data of patent publication US12319699B2, “L-proline sulfonamide derivatives comprising pyrazolo[4,3-e]tetrazolo[4,5-b][1,2,4]triazine system, method of manufacturing thereof, uses thereof and pharmaceutical composition comprising the same” (UNIWERSYTET MEDYCZNY W BIALYMSTOKU, priority 2018, dated 2025).

The test system of test [1] is DLD-1 colorectal cancer cells. As to the kind of experiment: Induction of apoptosis, Annexin V-FITC / propidium iodide flow cytometry. The test is classed as cell-based, human. Conditions: 24 hours. How it is done: DLD-1 human colorectal cancer cells (ATCC CCL-221, Manassas, VA, USA) were grown in DMEM (Dulbecco's Modified Eagle's Medium) supplemented with 10% fetal bovine serum (FBS), 2 mM glutamine, 50 U/ml penicillin, 50 μg/ml streptomycin at 37° C., in atmosphere containing 5% of CO2. Then the cells were counted in a hemocytometer and transferred in the amount of 1×10^6 cells per well in 1 ml of culture medium from Costar flasks (Sigma, USA) to Nunc 6-well plates (Wiesbaden, Germany). The cells were transferred using calcium-free phosphate buffer with the addition of 0.05% trypsin and 0.02% EDTA. […] Within the subsequent 24 hours the cells covered at least 80% of the surface of each plate well. The cells prepared in this manner were incubated with the examined compounds for 24 hours and then used for further experiments.
Induction of apoptosis was examined by a method using fluorescein isothiocyanate-labelled Annexin V (Annexin V-FITC) which forms complexes with phosphatidylserine in the presence of calcium ions. The complexes were determined using FITC Annexin V Apoptosis Detection Kit II (BD Biosciences, USA) and a flow cytometer BD FACSCanto H (BD Biosciences Systems, San Jose, CA, USA). The analysis of results was carried out by means of FACSDiva software (BD Biosciences Systems, San Jose, CA USA).
DLD-1 and HT-29 cells were incubated for 24 hours in an incubator at 37° C. in a 5% CO2 atmosphere with medium containing the examined compounds according to the invention at specific concentrations. Both examined compounds were used at a concentration of 1.5 μM and 3.0 μM. After the incubation period, the medium was removed, a binding buffer included in the kit was added and the cells were suspended in the buffer. In order to calibrate the apparatus two control samples, i.e. a positive one and a negative one, were prepared. The positive control constituted a reference of control cells in which apoptosis was induced by the addition of 3% formaldehyde. Three control samples were prepared. The first sample contained control cells and propidium iodide, the second sample contained control cells and Annexin V-FITC and the third sample contained control cells, propidium iodide and Annexin V-FITC. After adding 2 μl of 3% formaldehyde the cells were placed in a refrigerator for 10 minutes. Cells that were not treated with any agent constituted the negative control. The cells from the control samples and the cells treated by the examined compounds according to the invention (1×10^6 cells/ml) suspended in the buffer included in the kit were subjected to further examination. 200 μl suspension were taken from each examined sample and were transferred to test tubes. 3 μl Annexin V-FITC and 5 μl propidium iodide (PI) were added to each sample in room temperature and the samples were placed in a dark place for 15 minutes. Cell suspension prepared in this manner was analyzed within one hour in the flow cytometer BD FACSCanto II (BD Biosciences Systems, San Jose, CA, USA) by means of FACSDiva software. The results of the above experiment can be described as follows: live cells (double negative sample—lack of reaction with Annexin V and P), early apoptosis (Annexin V positive and PI negative sample), late apoptosis (Annexin V positive and PI positive sample) and necrosis (Annexin V negative and PI positive sample)

Test [2] deals with HT-29 colorectal cancer cells. The test is described as follows: Decrease in mitochondrial membrane potential, JC-1 MitoScreen flow cytometry. The test is classed as cell-based, human. Conditions: 24 hours. The protocol: HT-29 human colorectal cancer cells (ATCC HTB-38, Manassas, VA, USA) were cultured in McCoy's 5A medium supplemented with 10% fetal bovine serum (FBS), 2 mM glutamine, 50 U/ml penicillin, 50 μg/ml of streptomycin at 37° C., in atmosphere containing 5% CO2. Subsequently, the cells were counted in a hemocytometer and were transferred in the amount of 1×10^6 cells per well in 1 ml of culture medium from Costar flasks (Sigma, USA) to Nunc 6-well plates (Wiesbaden, Germany). The cells were transferred using calcium-free phosphate buffer with the addition of 0.05% trypsin and 0.02% EDTA. […] Within the subsequent 24 hours the cells covered at least 80% of the surface of each plate well. The cells prepared in this manner were incubated with the examined compounds for 24 hours and then used for further experiments.
For the assessment of changes in mitochondrial potential JC-1 MitoScreen kit (BD Biosciences. USA) was used. DLD-1 and HT-29 cancer cells covering about 80% of the plate surface were incubated with the examined compounds according to the invention at specific concentrations in an incubator at 37° C. in 5% CO2 atmosphere for 24 hours. Both examined compounds according to the invention were used at a concentration of 1.5 μM and 3.0 μM. After the incubation period, the medium was removed, the buffer included in the kit was added and the cells after washing two times were suspended in a mixture of JC-1 dye (5,5′,6,6′-tetrachloro-1,1′,3,3′-tetraethylbenzimidazol carbocyanine iodide) with a buffer at a concentration of 10 μg/ml. Subsequently, the samples were incubated in darkness for 15 minutes, washed with PBS solution and subjected to immediate analysis with the use of BD FacsCanto II flow cytometer; the results were assessed with the use of BD FacsDiva software. In live intact cells JC-1 dye accumulates in mitochondria and forms orange fluorescing aggregates. A decrease in mitochondrial potential ΔΨm is characterized by disintegration of these aggregates and green fluorescence.

Setting [3] is: DLD-1, 3.0 μM, listed as compound of Formula 3.

In test [1] (DLD-1, 1.5 μM), `COC(=O)C1CC(O)CN1S(=O)(=O)c1ccc(-n2nc(C)c3nc4nnnn4nc32)cc1` (centres unmarked) [Compound of Formula 3, Methyl 4-hydroxy-1-[4-(7-methyl-5H-pyrazolo[4,3-e]tetrazolo[4,5-b][1,2,4]triazyn-5-yl)phenylsulfonyl]pyrrolidine-2-carboxylate] displayed an Early apoptosis of 17.0%, a Late apoptosis of 32.1%, a Live cells of 43.9% and a Necrosis of 7.0%. The “early and late apoptotic cells (total)” value in test [1] (DLD-1, 1.5 μM) was 49.1%. In test [1] (DLD-1, 1.5 μM, listed as compound of Formula 3), this compound returned a Necrosis of 7.0%. In test [1] (DLD-1, 3.0 μM), this compound gave an Early apoptosis of 1.7%, a Late apoptosis of 80.8%, a Live cells of 11.0% and a Necrosis of 6.5%. Further, in test [1] (setting [3]), the Early apoptosis was 1.7%, the Late apoptosis worked out at 80.8% and the Necrosis came out at 6.5%. In addition, the “decrease of ΔΨm, % of the cell population” value in test [2] (HT-29, 1.5 μM) was found to be 26.9%. Besides, the “decrease of ΔΨm, % of the cell population” value in test [2] (HT-29, 3.0 μM) was found to be 81.0%.
In test [1] (DLD-1, 1.5 μM), `COC(=O)C1CCCN1S(=O)(=O)c1ccc(-n2nc(C)c3nc4nnnn4nc32)cc1` (centres unmarked) [Compound of Formula 2, Methyl 1-[4-(7-methyl-5H-pyrazol[4,3-e]tetrazolo[4,5-b][1,2,4]triazyn-5-yl)phenylsulfonyl]pyrrolidine-2-carboxylate] yielded an Early apoptosis of 13.1%, a Late apoptosis of 9.6%, a Live cells of 74.8% and a Necrosis of 2.5%. Further, the “early and late apoptotic cells (total)” value in test [1] (DLD-1, 1.5 μM) came out at 22.7%. In test [1] (DLD-1, 1.5 μM, listed as compound of Formula 2), the Necrosis is recorded as 2.5%. In test [1] (DLD-1, 3.0 μM), the Early apoptosis came out at 16.4%, the Late apoptosis amounted to 30.0%, the Live cells came out at 47.1% and the Necrosis came out at 6.6%. For the same compound, the “early and late apoptotic cells (total)” value in test [1] (DLD-1, 3.0 μM) was 46.4%. In test [1] (DLD-1, 3.0 μM, listed as compound of Formula 2), this compound gave a Necrosis of 6.6%. In addition, in test [2] (HT-29, 1.5 μM), the “decrease of ΔΨm, % of the cell population” value is reported as 25.7%. The “decrease of ΔΨm, % of the cell population” value in test [2] (HT-29, 3.0 μM) amounted to 79.7%.
